Target: T1, human RXFP1 (Homo sapiens, UniProt Q9HBX9)
T1 construct: expressed in transfected cells
T1 sequence (Q9HBX9 1-757): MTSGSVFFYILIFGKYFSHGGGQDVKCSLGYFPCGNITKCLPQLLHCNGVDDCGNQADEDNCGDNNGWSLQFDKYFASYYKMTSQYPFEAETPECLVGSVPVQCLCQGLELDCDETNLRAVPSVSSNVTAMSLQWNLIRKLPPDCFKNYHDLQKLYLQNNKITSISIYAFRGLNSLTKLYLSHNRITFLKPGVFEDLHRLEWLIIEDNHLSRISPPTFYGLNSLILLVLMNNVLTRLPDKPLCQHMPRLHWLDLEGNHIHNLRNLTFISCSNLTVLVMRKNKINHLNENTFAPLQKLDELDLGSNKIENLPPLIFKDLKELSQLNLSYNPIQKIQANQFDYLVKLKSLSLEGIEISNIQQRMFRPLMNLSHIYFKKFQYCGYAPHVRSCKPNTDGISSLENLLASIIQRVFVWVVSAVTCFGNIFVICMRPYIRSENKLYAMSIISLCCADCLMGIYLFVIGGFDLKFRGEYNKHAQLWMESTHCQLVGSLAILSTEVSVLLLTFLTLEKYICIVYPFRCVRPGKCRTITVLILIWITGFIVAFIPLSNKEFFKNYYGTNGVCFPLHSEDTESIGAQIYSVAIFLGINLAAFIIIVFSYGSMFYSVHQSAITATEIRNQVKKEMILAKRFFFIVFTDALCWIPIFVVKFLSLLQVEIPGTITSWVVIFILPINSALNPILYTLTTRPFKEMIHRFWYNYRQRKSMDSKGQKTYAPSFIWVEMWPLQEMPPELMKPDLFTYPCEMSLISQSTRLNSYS
Assay: hRXFP1 HEK293 cAMP assay (HTRF)
Assay type: cell-based
Conditions: HEK293 cells stably expressing human RXFP1, 30 min at room temperature
Outline: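 Intracellular cAMP was read by HTRF, with potency fitted to a 4-parameter logistic curve. Compound exposure (0.010 nM–50 μM final, 2% DMSO) lasted 30 min at room temperature. Cells were hRXFP1-HEK293 at 1500 per well in IBMX-containing (0.5 mM) HEPES-buffered HBSS.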

Row | Compound | EC50
1 | COc1ccc(CCCCOC(=O)NC2CCC2)cc1C(=O)N[C@@H]1C2CCC(/C2=C/C(F)(F)F)[C@@H]1C(=O)Nc1ccc(F)c(C(F)(F)F)c1 (stereo partly drawn) [Example 102, 4-(3-{[(2R,3S,7Z)-3-{[4-fluoro-3-(trifluoromethyl)phe-nyl]carbamoyl}-7-(2,2,2-trifluoroethylidene)bi-cyclo[2.2.1]heptan-2-yl]carbamoyl}-4-methoxyphenyl)butyl N-cyclobutylcarbamate] | 0.439 µM
2 | COc1ccc(CCCOc2ccncc2)cc1C(=O)NC1C2CCC(/C2=C/C(F)(F)F)[C@@H]1C(=O)Nc1ccc(F)c(C(F)(F)F)c1 (stereo partly shown) [Example 104] | 0.988 µM
3 | COc1ccc(CCCOc2nc3ccccc3n2C)cc1C(=O)N[C@@H]1C2CCC(/C2=C/C(F)(F)F)[C@@H]1C(=O)Nc1ccc(F)c(C(F)(F)F)c1 (stereo partly drawn) [Example 105, (2S,3R,7Z)-N-[4-fluoro-3-(trifluoromethyl)phe-nyl]-3-(2-methoxy-5-{3-[(1-methyl-1H-1,3-benzodiazol-2-yl)oxy]propyl}benza-mido)-7-(2,2,2-trifluoroethylidene)bi-cyclo[2.2.1]heptane-2-carboxamide] | 1.64 µM
4 | O=C(N[C@H]1[C@@H](C(=O)Nc2ccc(F)c(C(F)(F)F)c2)[C@H]2CC[C@@H]1/C2=C\C(F)(F)F)c1cc(C#CCO)ccc1OCCO [Example 106, (1R,2S,3R,4R,Z)—N-(4-fluoro-3-(trifluoromethyl)phenyl)-3-(2-(2-hydroxyethoxy)-5-(3-hydroxyprop-1-yn-1-yl)benzamido)-7-(2,2,2-trifluoroethylidene) bicyclo[2.2.1]heptane-2-carboxamide] | 0.377 µM
5 | CCCc1ccc(OCCO)c(C(=O)N[C@@H]2C3CCC(/C3=C/C(F)(F)F)[C@@H]2C(=O)Nc2ccc(F)c(C(F)(F)F)c2)c1 (stereo partly drawn) [Example 108, (2S,3R,7Z)-N-[4-fluoro-3-(trifluoromethyl)phe-nyl]-3-[2-(2-hydroxyethoxy)-5-propylbenzamido]-7-(2,2,2-trifluoroethylidene)bi-cyclo[2.2.1]heptane-2-carboxamide] | 2.27 µM
6 | COc1ccc(CCCNC(=O)OC(C)(C)C)cc1C(=O)N[C@@H]1C2CCC(/C2=C/C(F)(F)F)[C@@H]1C(=O)Nc1ccc(F)c(C(F)(F)F)c1 (stereo partly shown) [Example 109] | 2.08 µM

Continued, values first:

Row | EC50 | Compound
7 | 0.372 µM | COc1ccc(CCC(O)C(F)(F)F)cc1C(=O)N[C@@H]1C2CCC(/C2=C/C(F)(F)F)[C@@H]1C(=O)Nc1ccc(F)c(C(F)(F)F)c1 (stereo partly drawn) [Example 100, (2S,3R,7Z)-N-[4-fluoro-3-(trifluoromethyl)phe-nyl]-3-[2-methoxy-5-(4,4,4-trifluoro-3-hydroxybutyl)benza-mido]-7-(2,2,2-trifluoroethylidene)bi-cyclo[2.2.1]heptane-2-carboxamide]
8 | 0.194 µM | COc1ccc(CCCCCCOC(=O)NC2CCC2)cc1C(=O)N[C@@H]1C2CCC(/C2=C/C(F)(F)F)[C@@H]1C(=O)Nc1ccc(F)c(C(F)(F)F)c1 (stereo partly drawn) [Example 101, 6-(3-{[(2R,3S,7Z)-3-{[4-fluoro-3-(trifluoromethyl)phe-nyl]carbamoyl}-7-(2,2,2-trifluoroethylidene)bi-cyclo[2.2.1]heptan-2-yl]carbamoyl}-4-methoxyphenyl)hex-yl N-cyclobutylcarbamate]
9 | 0.725 µM | COc1ccc(CCCCCOC(=O)NC2CCC2)cc1C(=O)N[C@@H]1C2CCC(/C2=C/C(F)(F)F)[C@@H]1C(=O)Nc1ccc(F)c(C(F)(F)F)c1 (stereo partly drawn) [Example 103, 5-(3-{[(2R,3S,7Z)-3-{[4-fluoro-3-(trifluoromethyl)phe-nyl]carbamoyl}-7-(2,2,2-trifluoroethylidene)bi-cyclo[2.2.1]heptan-2-yl]carbamoyl}-4-methoxyphenyl)pent-yl N-cyclobutylcarbamate]
10 | 0.815 µM | O=C(N[C@@H]1C2CCC(/C2=C/C(F)(F)F)[C@@H]1C(=O)Nc1ccc(F)c(C(F)(F)F)c1)c1cc(CCCO)ccc1OCCO (stereo partly drawn) [Example 107, (2S,3R,7Z)-N-[4-fluoro-3-(trifluoromethyl)phe-nyl]-3-[2-(2-hydroxyethoxy)-5-(3-hydroxypropyl)benz-amido]-7-(2,2,2-trifluoroethylidene)bi-cyclo[2.2.1]heptane-2-carboxamide]
